Laboratory results: patent US11396517B1, “Exo-aza spiro inhibitors of menin-MLL interaction” (Janssen Pharmaceutica NV, priority 2017, dated 2022)

Legend:
MOLM14 = test: Proliferation assay A (spheroid assay) MOLM14; format: cell-based, human; settings: Homo sapiens, MOLM-14, 192 h, MOLM14 cells, 8 d, AUC of confluence against time, absolute IC50; read-out: (3a) Spheroid assay MOLM14 (IC50(μM)) Assay A
How it was run: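 Spheroid growth in ultra-low-attachment round-bottom wells (1,500 MV-4-11, 300 MOLM14 or 750 K562 cells), compound titration at 0.3% DMSO, 8 d at 37° C. Confluence imaged every 4 h; AUC from t=0 baseline expressed as % of DMSO control and fitted for absolute IC50.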

K562 = test: Proliferation assay B (spheroid assay) K562 control cell line; format: cell-based; settings: Homo sapiens, 192 h; K562 cells (MLL wildtype control), confluence at day 8; read-out: (3b) Spheroid assay K562 Assay B
Method: 3b) Proliferation Assay B
The anti-proliferative effect of menin/MLL protein/protein interaction inhibitor test compounds was assessed in human leukemia cell lines. The cell lines MV-4-11 and MOLM14 harbor MILL translocations and express the MILL fusion proteins MLL-AF4 and MLL-AF9, respectively, as well as the wildtype protein from the second allele. […] K562 was used as a control cell line containing two MLL wildtype alleles in order to exclude compounds that display general cytotoxic effects.
MV-4-11 and MOLM14 were cultured in RPMI-1640 (Sigma Aldrich) supplemented with 10% fetal bovine serum (HyClone), 2 mM L-glutamine (Sigma Aldrich) and 50 μg/ml gentamycin (Gibco). K562 were propagated in RPMI-1640 (Sigma Aldrich) supplemented with 20% fetal bovine serum (HyClone), 2 mM L-glutamine (Sigma Aldrich) and 50 μg/ml gentamycin (Gibco).
In order to assess the anti-proliferative effects, 1,500 MV-4-11, 300 MOLM14 cells or 750 K562 cells were seeded in 200 μl media per well in 96-well round bottom, ultra-low attachment plates (Costar, catalogue number 7007). Cell seeding numbers were chosen based on growth curves to ensure linear growth throughout the experiment. Test compounds were added at different concentrations and the DMSO content was normalized to 0.3%. Cells were incubated for 8 d at 37° C. and 5% CO2. Spheroid like growth was measured in real-time by live-cell imaging (IncuCyteZOOM, Essenbio, 4× objective) acquiring images at day 8. Confluence (%) as a measure of spheroid size was determined using an integrated analysis tool.
In order to determine the effect of the test compounds over time, the confluence in each well as a measure of spheroid size, was calculated. Confluence […] at the beginning of the experiment (t=0) was used as baseline for the calculation.
Absolute IC50 values were calculated as percent change in confluence as follows:
LC=Low Control: cells treated with 1 μM of the cytotoxic agent staurosporin
HC=High Control: Mean confluence (%) (DMSO treated cells) % Effect=100−(100*(Sample−LC)/(HC−LC))
To determine the IC50 a curve is fitted to the plot of % Effect vs Log 10 compound concentration using a sigmoidal fit with a variable slope and fixing the maximum to 100% and the minimum to 0%.

| IC50 (MOLM14) [µM] | IC50 (K562) [nM] | SMILES |
| --- | --- | --- |
| 0.82 | – | Cn1c(=O)[nH]c2cc(CNC3CCC4(C3)CN(c3ncnc5sc(CC(F)(F)F)cc35)C4)ccc21 (stereo not shown) [Compound 54] |
| 3.98 | – | FC(F)(F)Cc1cc2c(N3CCC4(CC(Nc5ccc6cc[nH]c6c5)C4)C3)ncnc2s1 (mixture of isomers) [Compound 311] |
| 0.7 | – | CNC(=O)c1ccc(NC2CC3(CCN(c4ncnc5sc(CC(F)(F)F)cc45)C3)C2)cc1 (stereo not shown) [Compound 93] |
| – | 14100 | O=c1[nH]c2cc(CNC3CCC4(C3)CN(c3ncnc5sc(CC(F)(F)F)cc35)C4)ccc2o1 (single isomer, unassigned) [Compound 58] |
